pIC50: −log10 of the molar value.

One experiment concerns the target T1, aldosterone receptor (Rattus norvegicus, UniProt P22199).
T1 construct: centrifuged at 105,000 g for 30 minutes, and then a supernatant was collected as a renal soluble fraction; from tissue; host or cells: rat kidney (adrenalectomized rat), 105,000 g supernatant (cytosol)
T1 sequence (P22199 1-981): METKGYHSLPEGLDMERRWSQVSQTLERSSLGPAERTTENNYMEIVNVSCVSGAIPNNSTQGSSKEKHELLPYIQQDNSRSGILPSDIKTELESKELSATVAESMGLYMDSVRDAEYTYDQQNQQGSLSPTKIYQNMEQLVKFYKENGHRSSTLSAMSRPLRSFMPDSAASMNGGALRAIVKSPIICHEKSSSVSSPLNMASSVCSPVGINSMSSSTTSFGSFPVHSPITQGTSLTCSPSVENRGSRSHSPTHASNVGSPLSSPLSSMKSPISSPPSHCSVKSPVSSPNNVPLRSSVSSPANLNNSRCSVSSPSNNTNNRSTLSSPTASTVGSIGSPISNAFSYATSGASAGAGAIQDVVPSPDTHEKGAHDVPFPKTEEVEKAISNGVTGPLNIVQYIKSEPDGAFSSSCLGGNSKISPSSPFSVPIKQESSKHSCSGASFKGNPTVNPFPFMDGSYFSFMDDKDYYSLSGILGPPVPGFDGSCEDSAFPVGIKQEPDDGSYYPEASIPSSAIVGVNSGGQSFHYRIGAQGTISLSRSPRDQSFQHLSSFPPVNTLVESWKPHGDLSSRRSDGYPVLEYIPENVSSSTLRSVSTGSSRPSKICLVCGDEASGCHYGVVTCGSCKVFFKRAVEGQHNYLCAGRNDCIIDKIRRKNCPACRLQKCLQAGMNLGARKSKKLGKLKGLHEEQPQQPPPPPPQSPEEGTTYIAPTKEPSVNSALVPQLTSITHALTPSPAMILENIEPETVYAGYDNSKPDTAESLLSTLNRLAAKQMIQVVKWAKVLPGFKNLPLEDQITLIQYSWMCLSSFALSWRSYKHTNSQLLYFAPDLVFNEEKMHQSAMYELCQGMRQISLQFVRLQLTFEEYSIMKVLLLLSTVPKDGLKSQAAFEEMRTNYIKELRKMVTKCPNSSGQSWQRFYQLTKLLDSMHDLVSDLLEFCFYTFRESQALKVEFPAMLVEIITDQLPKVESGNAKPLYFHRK
Nature of the experiment: Binding inhibition test for aldosterone receptor ([3H]aldosterone, rat renal soluble fraction). Conditions: [3H]aldosterone 2 nM, rat renal soluble fraction, in the presence of 2 μM RU-486, 4° C. about 18 hours; read-out: MR IC50. The procedure:
Binding Inhibition Test for Aldosterone Receptor
A rat was layed open in flank regions (on both sides) to remove both adrenal glands. After stitching up the incision, the rat was returnd to a breeding cage again. After removing the kidney from the rat reared for about 3 to 5 days, the kidney was homogenized in 0.1 M Tris-HCl, 0.25M sucrose, 0.1M Na2MoO4 and 2 mM DTT buffer solution (pH7.4). The resultant was centrifuged at 105,000 g for 30 minutes, and then a supernatant was collected as a renal soluble fraction.
The rat renal soluble fraction (0.5 to 1.5 mg), a labeled ligand [^3H] aldosterone (2 nM) and a test article were reacted in the presence of 2 μM RU-486 (glucocorticoid receptor antagonist) in 100 μL of total amounts at 4° C. for about 18 hours. Afterwards, to the reaction solution was added 50 μL of 5% dextran-coated activated charcoal, and the mixture was immingled, and then centrifuged at 3,000 g for 5 minutes. Then, a supernatant (100 μL) was collected and mixed with a liquid scintillator ACS-II (Amersham) (3.5 mL), and then analyzed its radioactivity by a liquid scintillation counter (manufactured by Packard, Tri Carb 2700TR). A non-specific binding was obtained by addition of 2 μM aldosterone to a reaction solution. […]
Binding inhibition rate (%)=100−{(B−N)/(B0−N)}×100
B: labeled ligand binding amounts in the presence of a test article and a labeled ligand
B0: labeled ligand binding amounts in the absence of a test article
N: labeled ligand binding amounts in the presence of excess aldosterone (2 μM)
Test example 1 was carried out for compounds obtained in the Examples.
As to `COc1cc(NC(=O)c2ccc(-c3ccccc3OC(F)(F)C(F)F)cc2)ccc1S(N)(=O)=O` [Example 40], the pIC50 (commonly −log10 of the IC50, conventionally taken in molar units) was 6.41.

Take `COc1cc(C(=O)Nc2ccc(-c3ccccc3C(F)(F)F)c(CN3CCC4(CC3)OCCO4)c2)ccc1S(N)(=O)=O` [Example 393]: the pIC50 is 6.28.

In the case of `CS(=O)(=O)c1ccc(NC(=O)c2ccc(-c3ccccc3C(F)(F)F)c(CO)c2)cc1` [Example 65], the pIC50 was 6.60.

With `COc1ccc(-c2ccc(C(=O)Nc3ccc(S(N)(=O)=O)c(OC)c3)cc2CNCC(F)F)c(C)c1` [Example 592], the negative-log IC50 (pIC50) is more than 5.00.

On to `COc1cc(NC(=O)c2ccc(-c3cc(C)ccc3C(F)(F)F)c(CNCC(F)F)c2)ccc1S(N)(=O)=O` [Example 443], for which the negative-log IC50 (pIC50) was more than 5.00.

With `COc1cc(NC(=O)c2ccc(-c3ccccc3OC(F)(F)F)c(NCc3nccn3C)c2)ccc1S(N)(=O)=O` [Example 577], the pIC50 was more than 5.00.

`COc1cc(NC(=O)c2ccc(-c3ccccc3OC(F)(F)F)c(CN3CCCOCC3)c2)ccc1S(N)(=O)=O` [Example 303]: the pIC50 is 6.82.

Take `COc1cc(C(=O)Nc2ccc(-c3ccccc3N3C[C@@H](C)O[C@@H](C)C3)c(C)c2)ccc1S(N)(=O)=O` [Example 345]: the pIC50 is 6.85.

For the compound `COc1cc(C(=O)Nc2ccc(-c3ccccc3CN3CCOCC3)c(C)c2)ccc1S(N)(=O)=O` [Example 337], the pIC50 is 5.96.

`COc1cc(NC(=O)c2ccc(-c3ccccc3C(F)(F)F)cc2)ccc1S(N)(=O)=O` [Example 10]: the pIC50 is 6.30.

As for `CCN(CC)Cc1cc(C(=O)Nc2ccc(S(N)(=O)=O)c(OC)c2)ccc1-c1ccccc1OC(F)(F)F` [Example 295], the pIC50 is 7.00.

Consider `COc1ccc(-c2ccc(C(=O)Nc3ccc(S(N)(=O)=O)c(OC)c3)cc2CO)c(C(F)(F)F)c1` [Example 128], for which the pIC50 was 6.85.

In the case of `CCc1ccccc1-c1ccc(C(=O)Nc2ccc(S(N)(=O)=O)c(OC)c2)cc1` [Example 56], the pIC50 was 6.28.

Regarding `COc1cc(NC(=O)c2ccc(-c3ccccc3-c3nc(C)no3)c(CO)c2)ccc1S(N)(=O)=O` [Example 259], the pIC50 is 6.35.

Turning to `COc1cc(C(=O)Nc2ccc(-c3ccccc3NC(C)C)c(C)c2)ccc1S(N)(=O)=O` [Example 351], the pIC50 was 5.92.

Take `COc1cc(C(=O)Nc2ccc(-c3ccccc3Cl)c(CNCC(F)F)c2)ccc1S(N)(=O)=O` [Example 488]: the pIC50 is more than 5.00.

On to `COc1cc(NC(=O)c2ccc(-c3ccccc3CN3CCOCC3)cc2)ccc1S(N)(=O)=O` [Example 22], for which the pIC50 was 5.80.

On to `COc1cc(NC(=O)c2ccc(-c3ccccc3CC(F)(F)F)c(CNCC(F)F)c2)ccc1S(N)(=O)=O` [Example 438], for which the pIC50 was more than 5.00.

In the case of `CN(Cc1cc(C(=O)Nc2ccc(S(C)(=O)=O)cc2)ccc1-c1ccccc1OC(F)(F)F)C1CCCCC1` [Example 202], the pIC50 was 6.12.

For the compound `CS(=O)(=O)c1ccc(NC(=O)c2ccc(-c3ccccc3OC(F)(F)F)c(CN[C@H]3CCCc4ccccc43)c2)cc1` [Example 211], the pIC50 is 6.04.

For the compound `CS(=O)(=O)c1ccc(NC(=O)c2ccc(-c3ccccc3OC(F)(F)F)c(CN3CCC3)c2)cc1` [Example 508], the pIC50 was more than 5.00.

On to `COc1cc(C(=O)Nc2ccc(-c3ccccc3C(F)(F)F)c(CCl)c2)ccc1S(N)(=O)=O` [Example 324], for which the pIC50 is 6.72.

On to `COc1cc(C(=O)Nc2ccc(-c3ccccc3C(F)(F)F)c(CNCc3ccco3)c2)ccc1S(N)(=O)=O` [Example 329], for which the pIC50 is 6.66.

Consider `NS(=O)(=O)c1cccc(NC(=O)c2ccc(-c3ccccc3)c(CN3CCCCC3)c2)c1` [compound 2], for which the negative-log IC50 (pIC50) is less than 5.00.

Take `COc1cc(C(=O)Nc2ccc(-c3ccccc3C(F)(F)F)c(CO)c2)ccc1S(N)(=O)=O` [Example 323-2]: the pIC50 is 6.60.

`COc1cc(NC(=O)c2ccc(-c3ccccc3OC(F)(F)F)c(CN3CCCCC3)c2)ccc1S(N)(=O)=O` [Example 297]: the pIC50 is 6.72.

Regarding `CS(=O)(=O)c1ccc(NC(=O)c2ccc(-c3ccccc3OC(F)(F)F)c(CNCC(F)F)c2)cc1` [Example 176], the pIC50 was 6.41.

On to `COc1cc(NC(=O)c2ccc(-c3ccccc3OC(F)(F)F)cc2)ccc1S(N)(=O)=O` [Example 12], for which the pIC50 was 6.21.

As for `COc1cc(NC(=O)c2ccc(-c3ccccc3OC(F)(F)F)c(CN3CCC(F)(F)CC3)c2)ccc1S(N)(=O)=O` [Example 286], the negative logarithm of the IC50 (pIC50) was 6.74.

Take `COc1cc(NC(=O)c2ccc(-c3ccccc3OC(F)(F)F)c(CN3CC(F)(F)C(F)(F)C3)c2)ccc1S(N)(=O)=O` [Example 305]: the pIC50 is 6.82.

With `COc1cc(NC(=O)c2ccc(-c3ccccc3SC)cc2)ccc1S(N)(=O)=O` [Example 57], the pIC50 was 6.19.

Turning to `COc1cc(NC(=O)c2ccc(-c3ccccc3C(C)C)cc2)ccc1S(N)(=O)=O` [Example 36], the pIC50 was 5.85.

Turning to `CCOCc1cc(NC(=O)c2ccc(S(N)(=O)=O)c(OC)c2)ccc1-c1ccccc1C(F)(F)F` [Example 373], the pIC50 is 7.00.

Consider `COc1cc(NC(=O)c2ccc(-c3ccc(F)cc3F)c(CNCC(F)F)c2)ccc1S(N)(=O)=O` [Example 414], for which the pIC50 was 5.77.

Consider `CCC(CC)NCc1cc(NC(=O)c2ccc(S(N)(=O)=O)c(OC)c2)ccc1-c1ccccc1OC(F)(F)F` [Example 365], for which the pIC50 was 6.34.

`COc1cc(NC(=O)c2ccc(-c3ccccc3OC(F)(F)F)c(CNC3CCC3)c2)ccc1S(N)(=O)=O` [Example 289]: the pIC50 was 6.44.

As to `CS(=O)(=O)c1ccc(NC(=O)c2ccc(-c3ccccc3OC(F)(F)F)c(CN3CCC(F)(F)CC3)c2)cc1` [Example 174], the pIC50 is 6.03.

As to `COc1cc(NC(=O)c2ccc(-c3ccccc3Cl)c(CNCC(F)F)c2)ccc1S(N)(=O)=O` [Example 451], the pIC50 is 6.26.

Turning to `COc1cc(NC(=O)c2ccc(-c3ccccc3C(F)(F)F)c(C)c2)ccc1S(N)(=O)=O` [Example 7], the pIC50 was 6.46.

For `CC(=O)OCc1cc(C(=O)Nc2ccc(S(C)(=O)=O)cc2)ccc1-c1ccccc1C(F)(F)F` [Example 64], the negative logarithm of the IC50 (pIC50) was 6.40.

`CS(=O)(=O)c1ccc(NC(=O)c2ccc(-c3ccccc3OC(F)(F)F)c(CN3CCOCC3)c2)cc1` [Example 162]: the pIC50 is 6.18.

Take `COCCNCc1cc(NC(=O)c2ccc(S(N)(=O)=O)c(OC)c2)ccc1-c1ccccc1C(F)(F)F` [Example 357]: the pIC50 is 6.89.

In the case of `COc1cc(NC(=O)c2ccc(-c3ccccc3OC(C)C)cc2)ccc1S(N)(=O)=O` [Example 39], the negative logarithm of the IC50 (pIC50) was 5.92.

Regarding `COC(=O)Nc1cc(C(=O)Nc2ccc(S(N)(=O)=O)c(OC)c2)ccc1-c1ccccc1OC(F)(F)F` [Example 578], the pIC50 is more than 5.00.

For `CN(Cc1ccc(F)cc1)Cc1cc(C(=O)Nc2ccc(S(C)(=O)=O)cc2)ccc1-c1ccccc1OC(F)(F)F` [Example 231], the pIC50 is more than 5.00.

As to `COc1cc(NC(=O)c2ccc(-c3ccccc3C(F)(F)F)c(C(O)C(F)(F)F)c2)ccc1S(N)(=O)=O` (stereo not drawn) [Example 244], the negative logarithm of the IC50 (pIC50) was 6.17.

The same experiment, now with this note: rat renal soluble fraction, [3H] aldosterone 2 nM, in the presence of 2 μM RU-486.
As to `NS(=O)(=O)c1cccc(NC(=O)c2ccc(-c3ccccc3)c(CN3CCCCC3)c2)c1` [compound 2, reference compound], the “binding affinities for aldosterone receptor” value was “very few binding affinities”.

Staying with this experiment, now noted: read-out: Inhibition rates (%) in 100 μM.
As for `NS(=O)(=O)c1cccc(NC(=O)c2ccc(-c3ccccc3)c(CN3CCCCC3)c2)c1` [compound 2], the inhibition (usually the change of the read-out against control, counted positive when it falls) at 100 µM was 11%.

The record behind these values is patent US20130116227A1, “BIARYL AMIDE DERIVATIVE OR PHARMACEUTICALLY ACCEPTABLE SALT THEREOF” (DAINIPPON SUMITOMO PHARMA CO., LTD., priority 2010, published 2013).
